The results in this text go back to patent US10189842B2 (Agency for Science, Technology and Research, priority 2013, dated 2019).

SMILES strings stand for the structures. Where only a bound is given, the exact number is not on record here.

This test has as its system HEK293-STF3A cells. As to the kind of experiment: STF3A assay (luciferase reporter). The format is cell-based, Human. The following applies: Homo sapiens, 24 h, 1 day of treatment. The source says:
HEK293-STF cell line was modified from Human embryonic kidney cell line HEK293 transfected with the STF reporter. HEK293-STF3A cell line was further modified from HEK293-STF cell line to express Wnt3A. This cell line was used to identify compounds that regulate either early or late signaling components of the Wnt pathway. These two cell lines were obtained from David Virshup's laboratory, Duke-NUS. L-Wnt3A (ATCC, #CRL-2647) cell line was used for providing Wnt3A conditioned media. The three cell lines were grown in DMEM with 10% FBS incubated in 37° C. with 5% CO2.
2×10^4 HEK293-STF3A cells in 75 μl culture media were seeded in each well of white 96 well plates (Greiner #655098) and incubated overnight at 37° C. 25 μl serially diluted compound was added to the cells to give final concentration of 50 μM to 1.5 nM. After 1 day of treatment, 100 μl of Steady-Glo Luciferase Assay reagent (#E2520, Promega) was added to each well and incubated for 10 minutes at room temperature. Luminescence was measured using Tecan Safire2 plate reader.
(In general: In a reporter assay the amount or activity of a reporter protein is the signal.)
As usually defined, the IC50 is the concentration needed to halve the response being measured. `CCc1cc2n(n1)CCCN2C(=O)CCC(=O)Nc1cc(-c2cccc(Cl)c2)no1` [Compound 137, N-(3-(3-chlorophenyl)isoxazol-5-yl)-4-(2-ethyl-6,7-dihydropyrazolo[1,5-a]pyrimidin-4(5H)-yl)-4-oxobutanamide]: the concentration for half-maximal inhibition (IC50) was < 100 nM.
In the case of `Cc1cc2n(n1)CCCN2C(=O)CCC(=O)Nc1ccc(-c2ccccn2)cc1` [Compound 34, 4-(2-methyl-6,7-dihydropyrazolo[1,5-a]pyrimidin-4(5H)-yl)-4-oxo-N-(4-(pyridin-2-yl)phenyl)butanamide], the half-inhibitory concentration (IC50) is < 100 nM.
With `Cc1cc2n(n1)CCCN2C(=O)CCC(=O)Nc1ccc(N2CCCC2)cc1` [Compound 31, 4-(2-methyl-6,7-dihydropyrazolo[1,5-a]pyrimidin-4(5H)-yl)-4-oxo-N-(4-(pyrrolidin-1-yl)phenyl)butanamide], the IC50 was < 5000 nM.
Consider `Cc1cc2n(n1)CCCN2C(=O)CCC(=O)Nc1ccc(-c2cccnn2)cc1` [Compound 37, 4-{2-methyl-5H,6H,7H-pyrazolo[1,5-a]pyrimidin-4-yl}-4-oxo-N-[4-(pyridazin-3-yl)phenyl]butanamide], for which the IC50 is < 1000 nM.
Then `Cc1cc2n(n1)CCCN2C(=O)CCC(=O)Nc1cc(-c2ccncc2)no1` [Compound 20, 4-{2-methyl-5H,6H,7H-pyrazolo[1,5-a]pyrimidin-4-yl}-4-oxo-N-[3-(pyridin-4-yl)-1,2-oxazol-5-yl]butanamide], with > 10000 nM; and `O=C(CCC(=O)N1CCCn2nc(C(F)(F)F)cc21)Nc1cc(-c2cccc(Cl)c2)no1` [Compound 134, N-(3-(3-chlorophenyl)isoxazol-5-yl)-4-oxo-4-(2-(trifluoromethyl)-6,7-dihydropyrazolo[1,5-a]pyrimidin-4(5H)-yl)butanamide], with < 100 nM; and `Cc1cc2n(n1)CCCN2C(=O)CCC(=O)Nc1nc(-c2cccc(Cl)c2)no1` [Compound 22, N-(3-(3-chlorophenyl)-1,2,4-oxadiazol-5-yl)-4-(2-methyl-6,7-dihydropyrazolo[1,5-a]pyrimidin-4(5H)-yl)-4-oxobutanamide], with > 10000 nM.
Then `Cc1cc2n(n1)CCCN2C(=O)CCC(=O)Nc1ccc(N2CCN(C(=O)OC(C)(C)C)CC2)cc1` [Compound 76, tert-butyl 4-(4-(4-(2-methyl-6,7-dihydropyrazolo[1,5-a]pyrimidin-4(5H)-yl)-4-oxobutanamido)phenyl)piperazine-1-carboxylate], with < 100 nM; and `Cc1cccc(-c2ccc(NC(=O)CCC(=O)N3CCCn4nc(C)cc43)nc2)c1` [Compound 93, 4-(2-methyl-6,7-dihydropyrazolo[1,5-a]pyrimidin-4(5H)-yl)-4-oxo-N-(5-(m-tolyl)pyridin-2-yl)butanamide], with < 100 nM; and `Cc1cc2n(n1)CCCN2C(=O)CCC(=O)Nc1ccc(-c2ccc(F)cc2)nc1` [Compound 87, N-(6-(4-fluorophenyl)pyridin-3-yl)-4-(2-methyl-6,7-dihydropyrazolo[1,5-a]pyrimidin-4(5H)-yl)-4-oxobutanamide], with < 1000 nM.
On to `Cc1cc2n(n1)CCCN2C(=O)CCC(=O)Nc1ccc(-c2cncc(N)c2)nc1` [Compound 112, N-(5′-amino-2,3′-bipyridin-5-yl)-4-(2-methyl-6,7-dihydropyrazolo[1,5-a]pyrimidin-4(5H)-yl)-4-oxobutanamide], for which the IC50 was < 1000 nM.
Then `Cc1cc2n(n1)CCCN2C(=O)CCC(=O)Nc1ccc(-c2ccccc2)c(F)c1` [Compound 57, N-(2-fluorobiphenyl-4-yl)-4-(2-methyl-6,7-dihydropyrazolo[1,5-a]pyrimidin-4(5H)-yl)-4-oxobutanamide], with < 100 nM.
Then `Cc1cc2n(n1)CCCN2C(=O)CCC(=O)Nc1ccc(-c2ccc(C(F)(F)F)cc2)cc1` [Compound 14, 4-(2-methyl-6,7-dihydropyrazolo[1,5-a]pyrimidin-4(5H)-yl)-4-oxo-N-(4′-(trifluoromethyl)-[1,1′-biphenyl]-4-yl)butanamide], with > 10000 nM; and `Cc1cc2n(n1)CCCN2C(=O)CCC(=O)N(C)c1cc(-c2cccc(Cl)c2)no1` [Compound 130, N-(3-(3-chlorophenyl)isoxazol-5-yl)-N-methyl-4-(2-methyl-6,7-dihydropyrazolo[1,5-a]pyrimidin-4(5H)-yl)-4-oxobutanamide], with > 10000 nM.
As for `Cc1cc2n(n1)CCCN2C(=O)CCC(=O)Nc1ccc(-c2cncnc2)cn1` [Compound 153, 4-(2-methyl-6,7-dihydropyrazolo[1,5-a]pyrimidin-4(5H)-yl)-4-oxo-N-(5-(pyrimidin-5-yl)pyridin-2-yl)butanamide], the figure is < 100 nM; as for `Cc1cc2n(n1)CCCN2C(=O)CCC(=O)Nc1ccc(-c2cccc(F)c2)nn1` [Compound 98, N-(6-(3-fluorophenyl)pyridazin-3-yl)-4-(2-methyl-6,7-dihydropyrazolo[1,5-a]pyrimidin-4(5H)-yl)-4-oxobutanamide], < 100 nM; as for `Cc1cc2n(n1)CCCN2C(=O)CCC(=O)Nc1ccc(-c2cnccn2)nc1` [Compound 166, 4-(2-methyl-6,7-dihydropyrazolo[1,5-a]pyrimidin-4(5H)-yl)-4-oxo-N-(6-(pyrazin-2-yl)pyridin-3-yl)butanamide], < 1000 nM.
On to `Cc1cc2n(n1)CCCN2C(=O)CCC(=O)Nc1ccc(-c2cncc(Cl)c2)cn1` [Compound 114, N-(5′-chloro-[3,3′-bipyridin]-6-yl)-4-(2-methyl-6,7-dihydropyrazolo[1,5-a]pyrimidin-4(5H)-yl)-4-oxobutanamide], for which the IC50 is < 100 nM.
As for `Cc1cc2n(n1)CCCN2C(=O)CCC(=O)Nc1ccc(-c2cccc(N3CCOCC3)c2)cc1` [Compound 73, 4-(2-methyl-6,7-dihydropyrazolo[1,5-a]pyrimidin-4(5H)-yl)-N-(3′-morpholinobiphenyl-4-yl)-4-oxobutanamide], the figure is < 5000 nM.
As for `COc1cc(NC(=O)CCC(=O)N2CCCn3nc(C)cc32)ccc1-c1ccccc1` [Compound 56, N-(2-methoxy-[1,1′-biphenyl]-4-yl)-4-(2-methyl-6,7-dihydropyrazolo[1,5-a]pyrimidin-4(5H)-yl)-4-oxobutanamide], the figure is < 5000 nM.
On to `Cc1cc2n(n1)CCCN2C(=O)CCC(=O)Nc1ccc(-c2ccccc2)nn1` [Compound 45, 4-(2-methyl-6,7-dihydropyrazolo[1,5-a]pyrimidin-4(5H)-yl)-4-oxo-N-(6-phenylpyridazin-3-yl)butanamide], for which the IC50 was < 100 nM.
As for `Cc1cc2n(n1)CCCN2C(=O)CCC(=O)Nc1cnc(-c2ccccc2)cn1` [Compound 47, 4-(2-methyl-6,7-dihydropyrazolo[1,5-a]pyrimidin-4(5H)-yl)-4-oxo-N-(5-phenylpyrazin-2-yl)butanamide], the figure is < 100 nM; as for `Cc1cc2n(n1)CCCN2C(=O)CCC(=O)Nc1ccc(-c2cncnc2)nc1` [Compound 154, 4-(2-methyl-6,7-dihydropyrazolo[1,5-a]pyrimidin-4(5H)-yl)-4-oxo-N-(6-(pyrimidin-5-yl)pyridin-3-yl)butanamide], < 1000 nM; as for `Cc1cc2n(n1)CCCN2C(=O)CCC(=O)Nc1ccc(-c2cccc(C(=O)O)c2)cc1` [Compound 67, 4′-(4-(2-methyl-6,7-dihydropyrazolo[1,5-a]pyrimidin-4(5H)-yl)-4-oxobutanamido)-[1,1′-biphenyl]-3-carboxylic acid], > 10000 nM.
Consider `Cc1ccc(-c2ccc(NC(=O)CCC(=O)N3CCCn4nc(C)cc43)nn2)cn1` [Compound 107, 4-(2-methyl-6,7-dihydropyrazolo[1,5-a]pyrimidin-4(5H)-yl)-N-(6-(6-methylpyridin-3-yl)pyridazin-3-yl)-4-oxobutanamide], for which the IC50 was < 100 nM.
As for `Cc1cc2n(n1)CCCN2C(=O)CCC(=O)Nc1ccc(N2CCNCC2)cc1` [Compound 77, 4-(2-methyl-6,7-dihydropyrazolo[1,5-a]pyrimidin-4(5H)-yl)-4-oxo-N-(4-(piperazin-1-yl)phenyl)butanamide], the figure is > 10000 nM; as for `Cc1cccc(-c2ccc(NC(=O)CCC(=O)N3CCCn4nc(C)cc43)cc2)c1` [Compound 59, 4-(2-methyl-6,7-dihydropyrazolo[1,5-a]pyrimidin-4(5H)-yl)-N-(3′-methyl-[1,1′-biphenyl]-4-yl)-4-oxobutanamide], < 100 nM.
As for `Cc1cncc(-c2ncc(NC(=O)CCC(=O)N3CCCn4nc(C)cc43)cc2C)c1` [Compound 168, N-(3,5′-dimethyl-[2,3′-bipyridin]-5-yl)-4-(2-methyl-6,7-dihydropyrazolo[1,5-a]pyrimidin-4(5H)-yl)-4-oxobutanamide], the figure is < 1000 nM.
As for `Cc1cc2n(n1)CCCN2C(=O)CCC(=O)Nc1ccc(-c2ccccc2C)cc1` [Compound 58, 4-(2-methyl-6,7-dihydropyrazolo[1,5-a]pyrimidin-4(5H)-yl)-N-(2′-methyl-[1,1′-biphenyl]-4-yl)-4-oxobutanamide], the figure is < 100 nM.
Turning to `Cc1cc2n(n1)CCCN2C(=O)CCC(=O)Nc1ccc(-c2ccccc2F)cc1` [Compound 64, N-(2′-fluoro-[1,1′-biphenyl]-4-yl)-4-(2-methyl-6,7-dihydropyrazolo[1,5-a]pyrimidin-4(5H)-yl)-4-oxobutanamide], the IC50 was < 100 nM.
As for `Cc1cc2n(n1)CCCN2C(=O)CCC(=O)Nc1ccc(-c2cccc(Cl)c2)cn1` [Compound 88], the figure is < 100 nM.
As for `Cc1cc2n(n1)CCCN2C(=O)CCC(=O)Nc1ccc(-c2cccc(F)c2)cn1` [Compound 89, N-(5-(3-fluorophenyl)pyridin-2-yl)-4-(2-methyl-6,7-dihydropyrazolo[1,5-a]pyrimidin-4(5H)-yl)-4-oxobutanamide], the figure is < 100 nM.
